In PMC3297363 (Journal of Medicinal Chemistry, 2012):
Where two headings read alike, the source gives them in different places. One block for each molecule: values may come before it.

Legend:
[1] = tested on: 3D7 strain of P. falciparum; assay: In vitro antimalarial activity versus 3D7 P. falciparum; type: cell-based, Plasmodium falciparum
[2] = tested on: TM90C2B strain of P. falciparum; assay: In vitro antimalarial activity versus atovaquone resistant TM90C2B; type: cell-based; settings: Plasmodium falciparum, read-out: IC50 in TM90C2B strain
PfNDH2 = biological target: T1, PfNDH2 (Plasmodium falciparum, UniProt Q8I302); type: biochemical; settings: PfNDH2 enzyme
T1 sequence (Q8I302 1-533): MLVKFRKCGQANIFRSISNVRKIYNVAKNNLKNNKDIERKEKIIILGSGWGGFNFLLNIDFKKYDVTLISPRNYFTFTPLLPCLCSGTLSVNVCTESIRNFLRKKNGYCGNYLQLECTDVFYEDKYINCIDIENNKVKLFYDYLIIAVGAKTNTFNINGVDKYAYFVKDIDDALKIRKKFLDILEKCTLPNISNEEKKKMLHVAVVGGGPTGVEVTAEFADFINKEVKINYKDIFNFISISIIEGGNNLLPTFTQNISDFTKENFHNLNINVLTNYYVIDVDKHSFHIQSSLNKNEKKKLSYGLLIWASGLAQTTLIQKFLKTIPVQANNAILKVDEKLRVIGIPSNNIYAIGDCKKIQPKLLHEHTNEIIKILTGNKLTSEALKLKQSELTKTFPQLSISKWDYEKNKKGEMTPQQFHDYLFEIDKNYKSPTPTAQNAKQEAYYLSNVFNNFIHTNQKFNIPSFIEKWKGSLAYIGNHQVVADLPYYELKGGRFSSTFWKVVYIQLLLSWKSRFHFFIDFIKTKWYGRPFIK

IC50 ([1]; read-out: IC50 (nM) 3D7 ± SD, 3D7 strain of P. falciparum, in vitro): 37 nM
SMILES: COc1ccc(Cc2ccc(-c3[nH]c4ccccc4c(=O)c3C)cc2)cc1 [6g]

IC50 ([1]; Plasmodium falciparum, 3D7, read-out: IC50 (nM) 3D7 ± SD, 3D7 strain of P. falciparum, in vitro): > 350 nM
SMILES: COc1cccc2[nH]c(-c3ccc(Cc4ccc(OC(F)(F)F)cc4)cc3)c(C)c(=O)c12 [6m]

SMILES: O=C1C(O)=C([C@H]2CC[C@H](c3ccc(Cl)cc3)CC2)C(=O)c2ccccc21 [atovaquone]
IC50 [2]: 12000 nM

IC50 (nM) PfNDH2 (PfNDH2): shows no PfNDH2
SMILES: O=c1c(-c2ccc(Oc3ccc(OC(F)(F)F)cc3)cc2)c(CO)[nH]c2ccccc12 [compound 25]
